The results in this text go back to BindingDB's records for patent US20230322822 (Chengdu Di''Ao Jiuhong Pharmaceutical Factory, 2023).

Experiment [1] has as its target Epidermal growth factor receptor (Homo sapiens, UniProt P00533). The experiment can be described thus: EGFR kinase Enzymatic Activity Test 1. As to the method:
(§1) To assess the effect of compounds on the activity of wild-type and mutant EGFR kinases, kinase activity was tested by measuring ATP consumption in an enzymatic reaction using an ADP-Glo (Promega Corporation) kit. Samples to be tested were dissolved in DMSO and diluted in a gradient. In a microplate, an EGFR kinase, a reaction buffer (containing Tris-HCl with a pH of 7.5, MgCl2, DTT and BSA), a kinase substrate Poly(Glu4, Tyr1) and a sample (a total volume of 20 μL per well) were added per well, while a blank control (no enzyme and sample) and a negative control (no sample) were set up; incubated for 15 minutes at 23° C.; added with 5 μL of ATP, and reacted at 23° C. for 60 minutes; added with ADP-Glo Reagent, and continuously reacted for 40 minutes at room temperature to inactivate the redundant ATP; then, added with a Kinase Detection Reagent, and reacted at room temperature for 30 minutes, then the chemiluminescence intensity L of each well was measured. […] IC50 values were calculated according to the above calculation using 4Parameter Logistic Model in XLfit software.

Experiment [2] deals with Epidermal growth factor receptor [T790M,L858R] (Homo sapiens, UniProt P00533, L858R/T790M). Kind of experiment: EGFR kinase Enzymatic Activity Test 1. The protocol: as §1
Sequence of Epidermal growth factor receptor [T790M,L858R] (P00533 25-1210 T790M/L858R limits assumed): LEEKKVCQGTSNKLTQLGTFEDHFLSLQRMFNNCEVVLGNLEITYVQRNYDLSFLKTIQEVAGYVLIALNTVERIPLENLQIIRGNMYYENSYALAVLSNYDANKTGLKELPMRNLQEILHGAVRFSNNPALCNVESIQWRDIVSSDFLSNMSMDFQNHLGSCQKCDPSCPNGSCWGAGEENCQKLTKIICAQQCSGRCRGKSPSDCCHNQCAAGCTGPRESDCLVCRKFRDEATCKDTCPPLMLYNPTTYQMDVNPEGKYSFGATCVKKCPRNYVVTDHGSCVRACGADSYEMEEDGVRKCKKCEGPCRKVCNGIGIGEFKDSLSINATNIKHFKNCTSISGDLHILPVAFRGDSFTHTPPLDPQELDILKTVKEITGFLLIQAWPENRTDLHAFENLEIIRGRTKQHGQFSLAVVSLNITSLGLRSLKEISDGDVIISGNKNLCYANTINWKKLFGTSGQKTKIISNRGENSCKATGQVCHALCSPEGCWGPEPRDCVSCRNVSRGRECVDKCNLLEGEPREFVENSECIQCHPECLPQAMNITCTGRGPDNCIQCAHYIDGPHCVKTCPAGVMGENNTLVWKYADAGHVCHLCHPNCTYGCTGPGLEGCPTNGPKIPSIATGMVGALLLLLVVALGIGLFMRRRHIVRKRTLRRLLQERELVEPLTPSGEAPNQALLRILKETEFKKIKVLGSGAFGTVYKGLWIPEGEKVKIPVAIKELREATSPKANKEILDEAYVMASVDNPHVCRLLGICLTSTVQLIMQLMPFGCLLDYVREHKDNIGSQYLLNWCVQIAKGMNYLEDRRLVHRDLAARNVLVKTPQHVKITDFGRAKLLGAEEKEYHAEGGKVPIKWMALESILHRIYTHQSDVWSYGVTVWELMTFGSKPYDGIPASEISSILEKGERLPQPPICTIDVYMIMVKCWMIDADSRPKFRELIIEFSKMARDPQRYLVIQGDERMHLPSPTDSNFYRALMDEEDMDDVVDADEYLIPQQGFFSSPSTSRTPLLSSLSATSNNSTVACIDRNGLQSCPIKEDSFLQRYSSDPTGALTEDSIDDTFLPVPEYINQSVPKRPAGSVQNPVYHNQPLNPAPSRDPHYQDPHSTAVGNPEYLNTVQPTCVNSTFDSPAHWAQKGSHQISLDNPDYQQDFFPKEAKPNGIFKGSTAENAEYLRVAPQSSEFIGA

Sequence of Epidermal growth factor receptor (P00533 whole entry): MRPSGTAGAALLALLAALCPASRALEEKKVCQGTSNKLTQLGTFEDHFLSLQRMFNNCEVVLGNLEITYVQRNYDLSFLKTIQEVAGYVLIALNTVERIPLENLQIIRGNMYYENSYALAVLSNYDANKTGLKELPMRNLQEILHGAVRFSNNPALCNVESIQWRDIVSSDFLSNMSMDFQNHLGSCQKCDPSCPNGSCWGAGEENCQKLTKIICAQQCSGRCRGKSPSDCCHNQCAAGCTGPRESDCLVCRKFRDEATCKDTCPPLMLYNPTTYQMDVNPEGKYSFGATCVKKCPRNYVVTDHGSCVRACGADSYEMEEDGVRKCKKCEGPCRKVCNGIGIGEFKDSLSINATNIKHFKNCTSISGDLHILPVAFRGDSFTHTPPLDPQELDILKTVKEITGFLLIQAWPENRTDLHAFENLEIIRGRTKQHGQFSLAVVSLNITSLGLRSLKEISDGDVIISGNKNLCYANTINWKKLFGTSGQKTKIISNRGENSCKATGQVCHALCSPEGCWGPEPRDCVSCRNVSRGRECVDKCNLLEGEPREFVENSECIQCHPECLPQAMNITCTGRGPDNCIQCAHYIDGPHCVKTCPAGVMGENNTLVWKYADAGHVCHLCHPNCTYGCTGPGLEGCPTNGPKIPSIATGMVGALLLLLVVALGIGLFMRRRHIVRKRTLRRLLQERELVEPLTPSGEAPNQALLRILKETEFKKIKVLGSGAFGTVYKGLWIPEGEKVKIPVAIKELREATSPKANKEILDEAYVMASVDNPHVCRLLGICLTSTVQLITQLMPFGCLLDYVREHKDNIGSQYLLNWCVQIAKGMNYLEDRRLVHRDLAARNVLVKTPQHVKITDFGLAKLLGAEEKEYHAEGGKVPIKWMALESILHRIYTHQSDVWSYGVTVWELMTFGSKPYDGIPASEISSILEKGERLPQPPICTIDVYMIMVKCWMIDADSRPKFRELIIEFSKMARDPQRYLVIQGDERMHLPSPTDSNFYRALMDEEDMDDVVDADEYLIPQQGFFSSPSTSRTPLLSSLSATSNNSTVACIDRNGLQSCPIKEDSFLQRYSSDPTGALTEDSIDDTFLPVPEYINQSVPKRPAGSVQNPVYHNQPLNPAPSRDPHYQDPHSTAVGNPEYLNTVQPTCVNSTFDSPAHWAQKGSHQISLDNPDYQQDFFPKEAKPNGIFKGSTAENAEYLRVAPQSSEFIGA

One may read the IC50 as the concentration that inhibits the measured activity by half. For `COc1cc(N2CCC(N3CCN(C)CC3)CC2)c(C)cc1Nc1ncc(Br)c(Nc2ccc(C)cc2P(C)(C)=O)n1` [US20230322822, Compound 2], the IC50 in experiment [1] came out at 169 nM; in experiment [2], 24.8 nM.
